Key:
Type in all cases: in vivo
[1] = tested on: Male Sprague-Dawley rats; assay: Gastric emptying test (Amberlite pellet retention in the stomach); details: Rattus norvegicus, 30 minutes before 30 pellets, pellets counted four hours later; for inhibition at 10 mg/kg: oral dose 10 mg/kg; for inhibition at 0.25 mg/kg: oral dose 0.25 mg/kg; for inhibition at 0.5 mg/kg: oral dose 0.5 mg/kg
Procedure: The gastric emptying test is performed essentially as described by Brodie in Gastroenterology 50, 45-50 (1966). Male Sprague-Dawley rats (groups of five) are dosed orally with the test compounds or controls 30 minutes before the oral administration of 30 Amerlite pellets (Rohm & Haas Amberlite IRA-93, 1 mm diameter) suspended in 1 cm3 distilled water. The animals are killed with pentobarbital four hours after the pellets are given; the stomachs are removed and the number of pellets remaining in the stomach counted. The control group is compared to the drug treated group using the following formula: %retention = [(mean drug- treated) - (mean control) / 30-(mean control)] X 100.

[2] = tested on: Swiss-Webster male mice or Sprague-Dawley male rats; assay: Charcoal motility (intestinal transit of a charcoal suspension); details: oral dose 4 mg/kg, 30 minutes before charcoal; sacrificed 30 minutes after charcoal; species (mice or rats) not given
Procedure: A charcoal suspension (10 cm /kg of a 10% suspension of activated charcoal, U.S.P. in 0.5% methylcellulose) is given orally either to groups of 10 Swiss-Webster male mice (18-22 g, Taconic Farms) or groups of 5 Sprague-Dawley male rats (120-140 g, Charles River Breeding Labs., Inc.) 30 minutes after an oral dose of drug or control. The animals are sacrificied 30 minutes after receiving the charcoal and the intestines are carefully removed without stretching and placed lengthwise on moist paper. The length of the intestine (pyloric sphincter to caecum) and the distance travelled by the charcoal as a fraction of that length are evaluated for each animal and group means are compared and expressed as percentage inhibition; [formula] For estimation of the duration of inhibition, the interval between dosing with drug and the administration of charcoal is varied from 30 minutes to 6 hours.

[3] = tested on: poultry; assay: Feed efficiency studies on poultry under strict laboratory conditions; details: disease and parasite-free environment, relative to control animals
Source text: Studies on poultry conducted under strict laboratory conditions, that is, in a disease and parasitt -free environment, indicate that the administration of feed efficiency agents, such as the amidinoureas defined in formulae I-VI and in particular 1-(2,6-dimethylphenyl)-3-methylamidinourea, results in an increase in the feed conversion ratio and weight gain of the treated animal relative to that of the control animals. The % improvement in the feed conversion ratio in the treated animals as compared with the controls is expressed by: • Body Weight Gain of Body Weight Gain of [formula]

Question: How did the inhibition at 10 mg/kg [1] turn out when `Cc1cc(C)c(NC(=O)NC(=N)N)c(C)c1` [R'=CH3, R"=CH3, Rm=4-CH3, R6=H, R1=H] was run?
Answer: Its inhibition at 10 mg/kg is 45%.

Question: With `N=C(N)NC(=O)Nc1ccc(Cl)cc1Cl` [R'=Cl, R"=H, Rm=4-Cl, R6=H, R1=H] as the molecule, how does the inhibition at 10 mg/kg [1] read?
Answer: Its inhibition at 10 mg/kg is 85%.

Question: `N=C(N)NC(=O)Nc1ccc([N+](=O)[O-])cc1` [R'=H, R"=H, Rm=4NO2, R6=H, R1=H] was tested. Which inhibition at 10 mg/kg [1] did it give?
Answer: Its inhibition at 10 mg/kg is 59%.

Question: Which inhibition at 10 mg/kg [1] does the source give for `Cc1cc(Cl)ccc1NC(=O)NC(=N)N` [R'=CH3, R"=H, Rm=4-Cl, R6=H, R1=H] here?
Answer: The inhibition at 10 mg/kg was 28%.

Question: Which inhibition at 0.25 mg/kg [1] does the source give for `N=C(N)NC(=O)Nc1c(F)cccc1Cl` [R'=Cl, R"=F, Rm=H, R6=H, R1=H] here?
Answer: Its inhibition at 0.25 mg/kg is 60%.

Question: Which inhibition at 4 mg/kg [2] does the source give for `Cc1cccc(Cl)c1N(C)C(=O)NC(=N)N` [R'=Cl, R"=CH3, Rm=H, R6=CH3, R1=H] here?
Answer: Its inhibition at 4 mg/kg is 82%.

Question: For `CCNC(=N)NC(=O)Nc1ccc(N)cc1` [R'=H, R"=H, Rm=4-NH2, R6=H, R1=ET], which inhibition at 4 mg/kg [2] is on record?
Answer: The inhibition at 4 mg/kg was 20%.

Question: How did the inhibition at 4 mg/kg [2] turn out when `CCCCN(C(=O)NC(=N)N)c1c(C)cccc1C` [R'=CH3, R"=CH3, Rm=H, R6=n-Bu, R1=H] was run?
Answer: The inhibition at 4 mg/kg was 72%.

Question: `Cc1cccc(Br)c1NC(=O)NC(=N)N` [R'=Br, R"=CH3, Rm=H, R6=H, R1=H] was tested. Which inhibition at 4 mg/kg [2] did it give?
Answer: The inhibition at 4 mg/kg was 89%.

Question: For `Cc1ccc(NC(=O)NC(=N)N)c(Cl)c1` [R'=Cl, R"=H, Rm=4-CH3, R6=H, R1=H], which inhibition at 10 mg/kg [1] is on record?
Answer: Its inhibition at 10 mg/kg is 40%.

Question: `CCc1cccc(C)c1NC(=O)NC(=N)N` [R'=ET, R"=CH3, Rm=H, R6=H, R1=H] was tested. Which inhibition at 0.5 mg/kg [1] did it give?
Answer: Its inhibition at 0.5 mg/kg is 30%.

Question: Which inhibition at 2 mg/kg ([1]; oral dose 2 mg/kg) does the source give for `Cc1cccc(C)c1N(C)C(=O)NC(=N)N` [R'=CH3, R"=CH3, Rm=H, R6=CH3, R1=H] here?
Answer: The inhibition at 2 mg/kg was 55%.

Question: `N=C(N)NC(=O)Nc1c(Cl)cc(Br)cc1Cl` [R'=Cl, R"=Cl, Rm=4Br, R6=H, R1=H] was tested. Which inhibition at 40 mg/kg ([1]; oral dose 40 mg/kg) did it give?
Answer: The inhibition at 40 mg/kg was 54%.

Question: How did the inhibition at 4 mg/kg [2] turn out when `Cc1cccc([N+](=O)[O-])c1NC(=O)NC(=N)N` [R'=CH3, R"=NO2, Rm=H, R6=H, R1=H] was run?
Answer: Its inhibition at 4 mg/kg is 82%.

Question: With `Cc1ccccc1NC(=O)NC(=N)N` [R'=CH3, R"=H, Rm=H, R6=H, R1=H] as the molecule, how does the inhibition at 10 mg/kg [1] read?
Answer: The inhibition at 10 mg/kg was 54%.

Question: `CCCNC(=N)NC(=O)Nc1c(C)cc(C)cc1C` [R'=CH3, R"=CH3, Rm=4-CH3, R6=H, R1=n-Pr] was tested. Which inhibition at 4 mg/kg [2] did it give?
Answer: Its inhibition at 4 mg/kg is 15%.

Question: With `Cc1cccc(C)c1NC(=O)NC(=N)N` [R'=CH3, R"=CH3, Rm=H, R6=H, R1=H] as the molecule, how does the inhibition at 0.25 mg/kg [1] read?
Answer: The inhibition at 0.25 mg/kg was 55%.

Question: What does the source list for `CNC(=N)NC(=O)Nc1c(C)cccc1C` [1-(2,6-dimethylphenyl)-3-methylamidinourea]?
Answer: feed conversion ratio [3]: increase; weight gain [3]: increase

Question: For `CCc1cccc(CC)c1NC(=O)NC(=N)N` [R'=ET, R"=ET, Rm=H, R6=H, R1=H], which inhibition at 2.5 mg/kg ([1]; oral dose 2.5 mg/kg) is on record?
Answer: Its inhibition at 2.5 mg/kg is 83%.

Question: `COc1cccc(C)c1NC(=O)NC(=N)N` [R'=OCH3, R"=CH3, Rm=H, R6=H, R1=H] was tested. Which inhibition at 0.5 mg/kg [1] did it give?
Answer: The inhibition at 0.5 mg/kg was 70%.

Question: `N=C(N)NC(=O)Nc1ccc(Cl)c(Cl)c1` [R'=H, R"=H, Rm=3-Cl 4-Cl, R6=H, R1=H] was tested. Which inhibition at 10 mg/kg [1] did it give?
Answer: The inhibition at 10 mg/kg was 74%.

Question: With `CNC(=N)NC(=O)Nc1c(C)ccc(Br)c1C` [R'=CH3, R"=CH3, Rm=3Br, R6=H, R1=CH3] as the molecule, how does the inhibition at 4 mg/kg [2] read?
Answer: The inhibition at 4 mg/kg was 22%.

Question: With `N=C(N)NC(=O)Nc1c(Cl)cccc1Cl` [R'=Cl, R"=Cl, Rm=H, R6=H, R1=H] as the molecule, how does the inhibition at 0.125 mg/kg ([1]; oral dose 0.125 mg/kg) read?
Answer: Its inhibition at 0.125 mg/kg is 54%.

Question: For `N=C(N)NC(=O)Nc1c(Br)cccc1Br` [R'=Br, R"=Br, Rm=H, R6=H, R1=H], which inhibition at 4 mg/kg [2] is on record?
Answer: The inhibition at 4 mg/kg was 91%.

Question: Which inhibition at 0.25 mg/kg [1] does the source give for `Cc1cccc(Cl)c1NC(=O)NC(=N)N` [R'=Cl, R"=CH3, Rm=H, R6=H, R1=H] here?
Answer: Its inhibition at 0.25 mg/kg is 43%.

Question: For `CNC(=N)NC(=O)Nc1ccccc1C` [R'=CH3, R"=H, Rm=H, R6=H, R1=CH3], which inhibition at 4 mg/kg [2] is on record?
Answer: The inhibition at 4 mg/kg was 11%.

Question: Which inhibition at 4 mg/kg [2] does the source give for `CCc1cccc(CC)c1N(C)C(=O)NC(=N)N` [R'=ET, R"=ET, Rm=H, R6=CH3, R1=H] here?
Answer: The inhibition at 4 mg/kg was 12%.
